Bridge positions count the residues as written; N and C are the ends. Square brackets hold non-standard residues; d marks the D form. Peptide text beside a SMILES is read from it. Cba = N[C@@H](CC1CCC1)C(=O)O; S5 = C=CCCC[C@](C)(N)C(=O)O; Nle = CCCC[C@H](N)C(=O)O

Test [1] deals with HRE-bla ME-180 cells. Briefly: Reporter gene assay (HRE-bla ME-180 HIF reporter, GeneBLAzer). It counts as cell-based, human. The settings on record: for EC50: 24 hour normoxia. In short, it runs like this:
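A FRET β-lactamase readout of HIF transcription was used. After compound treatment in 0.3% DMSO/media under normoxic conditions, 20 μl of 6× LiveBLAzer-FRET B/G (CCF4-AM) substrate was added. Plates sat 3 hr at room temperature in the dark and were read at 409 Ex/460Em and 409Ex/530Em on a Synergy 2. Inhibition was compared against DMSO vehicle controls, with chetomin as positive control.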
On the technique in general: In a reporter assay the amount or activity of a reporter protein is the signal.

The test system of test [2] is HRE-bla ME-180 cells. Briefly: Cell proliferation assay (viability, MTT, 1% FBS). It is filed as cell-based, human. Here is the method:
The human cervical cell line HRE-Bla ME-180 was obtained from Invitrogen. 2×10^4 ME-180 cells were plated in 96-well plates (costar) in Opti-MEM plus 1% FBS (Invitrogen). After 4 hr, cells were pretreated with chetomin, peptide or 0.5% DMSO (final concentration in media) vehicle control for 16 hr under normoxia (21% O2); then incubation continued under normoxia or hypoxia (1% O2) using a hypoxia incubator (Thermo Forma model). Viable cell numbers were quantified using CellTiter 96 Non-Radioactive Cell Proliferation kit (Promega, G4100). The results are presented in the column “Viability 1% FBS AVG (MTT V3-24 hr Normoxia) (μM)” of Table 6.

Test [3] addresses T1, flag-tagged HIF1α (AA 786-826) / His6-tagged p300 (AA 323-423) complex (Homo sapiens, UniProt Q09472).
T1 construct: His6-tagged p300 (AA 323-423); made in house; host or cells: E. coli (pETDuet vector)
Description: HIF1α p300 displacement assay (TR FRET, +CHAPS). It counts as binding. Conditions: read-out: IC50 (nM) (HIF1α_p300 Displacement + CHAPS). The procedure, abridged: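 In this TR-FRET displacement format, peptides compete HIF1α C-terminal transactivation domain off p300-CH. They were preincubated 1 h at room temperature with 300 nM complex in HEPES pH 7.4/NaCl buffer with 7.5 mM CHAPS and 1 mM DTT. Anti-His-D2 (4 nM) and anti-Flag-K (0.5 μM) followed for 2 h, and a one-site fit of the fluorescence ratio gave IC50.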
Background: In TR-FRET formats the signal depends on donor and acceptor labels being close together.

In general, EC50 refers to the concentration needed to bring the measured effect to its halfway point. For the compound `CCCC[C@H](NC(=O)[C@H](Cc1ccccc1)NC(=O)[C@@H](NC(=O)[C@H](C)NC(=O)[C@H](CCC(N)=O)NC(=O)[C@H](CC(=O)O)NC(=O)[C@@H](NC(=O)[C@H](Cc1ccccc1)NC(C)=O)[C@@H](C)CC)C(C)C)C(=O)N[C@@]1(C)CCCC=CCCC[C@@](C)(C(=O)N[C@@H](CCCC)C(=O)N[C@@H](C)C(=O)N[C@@H](CC(C)C)C(=O)N[C@@H](CC(C)C)C(N)=O)NC(=O)[C@H]([C@@H](C)CC)NC(=O)[C@H](C(C)C)NC(=O)[C@H](CC(C)C)NC1=O` [SP-250] (Ac-FIDQAVF[Nle][S5]LVI[S5][Nle]ALL-NH2; staple 9-13), in the test on HRE-bla ME-180 cells [1], the “18 h Avg % max inhibition at top conc (HIF Rptr-24 hrs normoxia) (μM)” value (shortened to “18 h Avg % max inhibition at top conc”) was “+ (<10: +)” and the EC50 is above 30 µM. The “Viability 1% FBS AVG (MTT V3-24 hr Normoxia) (μM)” value (from here on “Viability 1% FBS AVG”) in the test with HRE-bla ME-180 cells [2] was “++++ (≥30: ++++)”.

In the case of `CC[C@H](C)[C@H](NC(=O)[C@H](CCCNC(=N)N)NC(=O)[C@H](CC(=O)O)NC(=O)[C@H](CC(C)C)NC(=O)[C@H](C)NC(=O)[C@H](CCSC)NC(=O)[C@]1(C)CCCC=CCCC[C@](C)(NC(=O)[C@H](CCSC)NC(=O)[C@H](CC(C)C)NC(=O)[C@@H](NC(=O)[C@H](CCC(N)=O)NC(=O)[C@H](CCC(=O)O)NC(=O)[C@H](CC(=O)O)NC(=O)[C@@H](NC(=O)[C@H](Cc2ccccc2)NC(C)=O)[C@@H](C)CC)C(C)C)C(=O)N[C@@H](CC(C)C)C(=O)N[C@@H](C(C)C)C(=O)N[C@@H]([C@@H](C)CC)C(=O)N1)C(N)=O` [SP-282] (Ac-FIDEQVLM[S5]LVI[S5]MALDRI-NH2; staple 9-13), in the test on HRE-bla ME-180 cells [1], the “18 h Avg % max inhibition at top conc” value is “++++ (≥50: ++++)” and the EC50 is at most 5 µM. Further, the “Viability 1% FBS AVG” value in the test on HRE-bla ME-180 cells [2] is “++++ (≥30: ++++)”.

Regarding `CCCC[C@H](NC(=O)[C@H](CCC(=O)O)NC(=O)[C@@H](NC(=O)[C@@H](NC(=O)[C@H](CC(C)C)NC(=O)[C@]1(C)CCCC=CCCC[C@](C)(NC(=O)[C@H](CCC(=O)O)NC(=O)[C@H](CC(=O)O)NC(=O)[C@@H](NC(=O)[C@H](Cc2ccccc2)NC(C)=O)[C@@H](C)CC)C(=O)N[C@@H](C(C)C)C(=O)N[C@@H](CC(C)C)C(=O)N[C@@H](CCSC)C(=O)N1)C(C)C)[C@@H](C)CC)C(=O)N[C@@H](C)C(=O)N[C@@H](CC(C)C)C(=O)N[C@@H](CC(=O)O)C(=O)N[C@@H](CCCNC(=N)N)C(=O)N[C@H](C(N)=O)[C@@H](C)CC` [SP-119] (Ac-FIDE[S5]VLM[S5]LVIE[Nle]ALDRI-NH2; staple 5-9), in the test with HRE-bla ME-180 cells [1], the “18 h Avg % max inhibition at top conc” value was “+++ (≤25 but <50: +++)” and the EC50 was above 30 µM. For the same compound, the “Viability 1% FBS AVG” value in the test on HRE-bla ME-180 cells [2] is reported as “++++ (≥30: ++++)”.

With `CCCC[C@H](NC(=O)[C@H](CC(C)C)NC(=O)[C@@H](NC(=O)[C@H](CCC(=O)O)NC(=O)[C@H](CCC(=O)O)NC(=O)[C@H](CC(=O)O)NC(=O)[C@@H](NC(=O)[C@H](Cc1ccccc1)NC(C)=O)[C@@H](C)CC)C(C)C)C(=O)N[C@@]1(C)CCCC=CCCC[C@@](C)(C(=O)N[C@@H](CCCC)C(=O)N[C@@H](C)C(=O)N[C@@H](CC(C)C)C(N)=O)NC(=O)[C@H]([C@@H](C)CC)NC(=O)[C@H](C(C)C)NC(=O)[C@H](CC(C)C)NC1=O` [SP-8] (Ac-FIDEEVL[Nle][S5]LVI[S5][Nle]AL-NH2; staple 9-13), the “Viability 1% FBS AVG” value with HRE-bla ME-180 cells [2] is on record as “++++ (≥30: ++++)”.

By IC50 is commonly meant the concentration needed to halve the response being measured. Regarding `CC[C@H](C)[C@H](NC(=O)[C@H](Cc1ccccc1)NC(C)=O)C(=O)N[C@@H](CC(=O)O)C(=O)N[C@@H](CCC(=O)O)C(=O)N[C@@]1(C)CCCC=CCCC[C@@](C)(C(=O)N[C@@H](CC(C)C)C(=O)N[C@H](C(=O)N[C@H](C(=O)N[C@@H](CCC(=O)O)C(=O)N[C@@H](CCSC)C(=O)N[C@@H](C)C(=O)N[C@@H](CC(C)C)C(=O)N[C@@H](CC(=O)O)C(=O)N[C@@H](CCCNC(=N)N)C(=O)N[C@H](C(=O)N[C@@H](CCCCN)C(=O)N[C@@H](CCC(=O)O)C(=O)N[C@@H](CC(C)C)C(=O)N2CCC[C@H]2C(=O)N[C@@H](CCC(=O)O)C(=O)N[C@@H](CC(C)C)C(=O)N[C@@H](Cc2c[nH]c3ccccc23)C(=O)N[C@@H](CC(C)C)C(N)=O)[C@@H](C)CC)[C@@H](C)CC)C(C)C)NC(=O)[C@H](CCSC)NC(=O)[C@H](CC(C)C)NC(=O)[C@H](C(C)C)NC1=O` [SP-107] (Ac-FIDE[S5]VLM[S5]LVIEMALDRIKELPELWL-NH2; staple 5-9), the IC50 in test [3] is at most 200 nM. For the same compound, the EC50 in the test with HRE-bla ME-180 cells [1] is above 30 µM.

Take `CCCC[C@H](NC(=O)[C@H](CCC(=O)O)NC(=O)[C@@H](NC(=O)[C@@H](NC(=O)[C@H](CC(N)=O)NC(=O)[C@]1(C)CCCC=CCCC[C@](C)(NC(=O)[C@H](C)NC(=O)[C@H](CC(=O)O)NC(=O)[C@@H](NC(=O)[C@H](Cc2ccccc2)NC(C)=O)[C@@H](C)CC)C(=O)N[C@@H]([C@@H](C)O)C(=O)N[C@@H](CC(C)C)C(=O)N[C@@H](CCCC)C(=O)N1)C(C)C)[C@@H](C)CC)C(=O)N[C@@H](C)C(=O)N[C@@H](CC(C)C)C(N)=O` [SP-151] (Ac-FIDA[S5]TL[Nle][S5]NVIE[Nle]AL-NH2; staple 5-9): in test [3], the IC50 was 400 to 700 nM. For the same compound, in the test on HRE-bla ME-180 cells [1], the “18 h Avg % max inhibition at top conc” value was “++++ (≥50: ++++)” and the EC50 was at most 5 µM.

In the case of `CCCC[C@H](NC(=O)[C@H](C)NC(=O)[C@H](C)NC(=O)[C@H](CCCC)NC(=O)[C@H](C)NC(=O)[C@H](CCCC)NC(=O)[C@H](CC(C)C)NC(=O)[C@@H](NC(=O)[C@@H](NC(=O)[C@H](CC(C)C)NC(=O)[C@]1(C)CCCC=CCCC[C@](C)(NC(=O)[C@H](CCC(=O)O)NC(=O)[C@H](CC(=O)O)NC(=O)[C@@H](NC(=O)[C@H](Cc2ccccc2)NC(C)=O)[C@@H](C)CC)C(=O)N[C@@H](C(C)C)C(=O)N[C@@H](CC(C)C)C(=O)N[C@@H](CCCC)C(=O)N1)C(C)C)[C@@H](C)CC)C(N)=O` [SP-126] (Ac-FIDE[S5]VL[Nle][S5]LVIL[Nle]A[Nle]AA[Nle]-NH2; staple 5-9), the IC50 in test [3] lay in the range of 200 to 400 nM. In addition, in the test with HRE-bla ME-180 cells [1], the “18 h Avg % max inhibition at top conc” value is on record as “++++ (≥50: ++++)” and the concentration for a half-maximal effect (EC50) was in the range of 15 to 30 µM.

Take `CC[C@H](C)[C@H](NC(=O)[C@H](Cc1ccccc1)NC(C)=O)C(=O)N[C@H](C(=O)N[C@@H](CCC(=O)O)C(=O)N[C@@H](CCC(=O)O)C(=O)N[C@H](C(=O)N[C@@H](CC(C)C)C(=O)N[C@@H](CCSC)C(=O)N[C@@]1(C)CCCC=CCCC[C@@](C)(C(=O)N[C@@H](CCSC)C(=O)N[C@@H](C)C(=O)N[C@@H](CC(C)C)C(N)=O)NC(=O)[C@H]([C@@H](C)CC)NC(=O)[C@H](C(C)C)NC(=O)[C@H](CC(C)C)NC1=O)C(C)C)[C@@H](C)O` [SP-231] (Ac-FITEEVLM[S5]LVI[S5]MAL-NH2; staple 9-13): the IC50 in test [3] was above 700 nM. Besides, in the test with HRE-bla ME-180 cells [1], the “18 h Avg % max inhibition at top conc” value is recorded as “+ (<10: +)” and the EC50 is above 30 µM.

`CC[C@H](C)[C@H](NC(=O)[C@H](Cc1ccccc1)NC(C)=O)C(=O)N[C@@H](CC(=O)O)C(=O)N[C@@H](CCC(=O)O)C(=O)N[C@@H](CCC(=O)O)C(=O)N[C@H](C(=O)N[C@@H](CC(C)C)C(=O)N[C@@H](CCSC)C(=O)N[C@@]1(C)CCCC=CCCC[C@@](C)(C(=O)N[C@@H](CCSC)C(=O)N[C@@H](C)C(=O)N[C@@H](CC2CCC2)C(N)=O)NC(=O)[C@H]([C@@H](C)CC)NC(=O)[C@H](C(C)C)NC(=O)[C@H](CC(C)C)NC1=O)C(C)C` [SP-237] (Ac-FIDEEVLM[S5]LVI[S5]MA[Cba]-NH2; staple 9-13): the IC50 in test [3] is above 700 nM. Also, in the test on HRE-bla ME-180 cells [1], the “18 h Avg % max inhibition at top conc” value is given as “+++ (≤25 but <50: +++)” and the concentration giving a half-maximal response (EC50) is above 30 µM.

`CCCC[C@H](NC(=O)[C@H](CCCNC(=N)N)NC(=O)[C@H](CC(=O)O)NC(=O)[C@H](CC(C)C)NC(=O)[C@H](C)NC(=O)[C@H](CCCC)NC(=O)[C@H](C)NC(=O)[C@@H](NC(=O)[C@@H](NC(=O)[C@H](CC(C)C)NC(=O)[C@]1(C)CCCC=CCCC[C@](C)(NC(=O)[C@H](CCC(=O)O)NC(=O)[C@H](CC(=O)O)NC(=O)[C@@H](NC(=O)[C@H](Cc2ccccc2)NC(C)=O)[C@@H](C)CC)C(=O)N[C@@H](C(C)C)C(=O)N[C@@H](CC(C)C)C(=O)N[C@@H](CCCC)C(=O)N1)C(C)C)[C@@H](C)CC)C(N)=O` [SP-125] (Ac-FIDE[S5]VL[Nle][S5]LVIA[Nle]ALDR[Nle]-NH2; staple 5-9): in test [3], the IC50 was in the range of 200 to 400 nM. Also, in the test with HRE-bla ME-180 cells [1], the “18 h Avg % max inhibition at top conc” value is recorded as “+ (<10: +)” and the EC50 is above 30 µM.

The record behind these values is patent US20190225650A1, “PEPTIDOMIMETIC MACROCYCLES AND USE THEREOF IN REGULATING HIF1ALPHA” (AILERON THERAPEUTICS, INC., priority 2013, published 2019).
